Source: patent US10351519B2, “Sulfamate derivative compounds, processes for preparing them and their uses” (BIO-PHARM SOLUTIONS CO., LTD., priority 2016, dated 2019)

Experiments:
Assay type in all cases: in vivo
Sprague-Dawley rats [1] = assay: Antiallodynic activity on Chung model (SNL, spinal nerve ligation); settings: orally; for ED50: Rattus norvegicus, po, at peak time
Text: Male Sprague-Dawley rats (100-130 g, Orient Bio, Korea) were habituated for 1 week before the experiment and allowed free access to food and water throughout the experimentation. Room temperature and humidity were maintained at 24±2 and 50±10%, respectively. The neuropathic surgery (SNL, Spinal nerve ligation) model was done as described in Kim and Chung (1992). Briefly, an animal was put under gaseous anesthesia with isoflurane. The left lumber spinal nerve L5 and L6 were isolated and tightly ligated with 6-0 silk thread. The wound muscle was closed with Catgut® chrom 3/0 thread and skin was closed with Dafilon 3/0 tread. Sham controls were prepared in the same manner with the spinal nerves exposed, but with no ligated L5 and L6 nerves. Preparation of the vehicle controls were identical to the group treated with compound, except for administration of vehicles without compound in the vehicle control group.
Tactile sensitivity (Mechanical allodynia) was evaluated using von Frey monofilaments before and after treatment, and animals were included in the study only if the withdrawal threshold value was less than 4 g. One week after surgery, SNL-operated animals, sham-operated animals and vehicle control animals were tested for tactile sensitivity with von Frey monofilaments 3 trials in each animal. All Animals were placed in a stainless steel mash chamber and habituated for 30 min in the test cage. The tactile sensitivity for the ipsilateral hind paw was measured using the up-and-down method (Dixon, 1980) with seven von Frey monofilaments (0.4, 1, 2, 4, 6, 8, and 15 g) in 3 trials. The tactile sensitivity test was followed by Dixon's method (Dixon, 1980). The 50% paw withdrawal threshold for each paw was calculated using the following formula: [Xth] log=[vFr] log+ky where [vFr] is the force of the last von Frey used, k=0.2249 which is the average interval (in log units) between the von Frey monofilaments, and y is a value that depends upon the pattern of withdrawal responses (Dixon, 1980).
All animals were fasted 18 h before the administration of the compounds. Antiallodynic effect of compounds were evaluated at the three dose, orally administrated in a volume of 5 ul/g, bw in a vehicle of 30% (v/v) PEG 400 or 20% (v/v) Tween 80. The test was performed at the peak time of efficacy after compound administration.
The relative values compared to the sham group (% control) were calculated and shown in Table 3, which show an antiallodynic effect of the test compounds on SNL model in rats.

Sprague-Dawley rats [2] = assay: Antiallodynic activity on Complete Freund's Adjuvant (CFA)-induced inflammatory pain model; settings: intraperitoneally; for response vs control in vivo at 50 mg/kg / ED50: Rattus norvegicus, ip; for response vs control in vivo at 50 mg/kg: read-out: CFA-induced pain model efficacy %; for ED50: at peak time
Experimental: Male, Sprague-Dawley rats (210-250 g, Nara Bio, Korea) were habituated for 1 week before CFA injection and allowed free access to food and water throughout the experimentation. Room temperature and humidity were maintained at 24±2 and 50±10%, respectively.
CFA-induced inflammatory pain was induced by the procedure of Nagakura et al. (2003) and Gregory P. et al. (2010) with minor modifications. CFA (sigma, USA) was injected in the right plantar with a 100 ul volume under gaseous anesthesia with isoflurane. Sham controls were injected with 100 ul of saline and preparation of the vehicles without compound in the vehicle control group. Tactile sensitivity (Mechanical allodynia) was evaluated using von Frey monofilaments before and after treatment, and the animals were included in the study only if the withdrawal threshold value was less than 4 g. One week after surgery, CFA-infused treatment animals (n=4-6), sham-operated animals (n=12), and vehicle control animals (n=17) were tested for tactile sensitivity with von Frey monofilaments 3 trials for each animal. All Animals were placed in a stainless steel mesh chamber and habituated for 30 min in the test box. The tactile sensitivity for ipsilateral hind paw was measured using the up-and-down method (Dixon, 1980) with seven von Frey monofilaments (0.4, 1, 2, 4, 6, 8, and 15 g) to 3 trials. Tactile sensitivity test was followed by Dixon's method (Dixon, 1980). The 50% paw withdrawal threshold for each paw was calculated using the following formula: [Xth] log=[vFr] log+ky where [vFr] is the force of the last von Frey used, k=0.2249 which is the average interval (in log units) between the von Frey monofilaments, and y is a value that depends upon the pattern of withdrawal responses (Dixon, 1980).
Antiallodynic effect of compound was evaluated at the dose of 10-60 mg/kg (n=4-6), intraperitoneally administrated in a volume of 5 ul/g bw in a vehicle of 30% (v/v) PEG or 20% (v/v) Tween 80. The test was performed peak time of efficacy (0.5 or 1 hr) after compound administration.
The relative values compared to the sham (% control) were calculated and shown in Table 4, which show an antiallodynic effect of Compound 1 on CFA-induced pain model in rats.

ICR mice [3] = assay: Anti-epilepsy activity, scPTZ test, mouse; settings: for ED50: ip
Text: In this experiment, each test compound sample was formulated as described in Biological Experimental Example I, and administered intraperitoneally to the test animals (mice; ICR or Rat; SD); Experimental animals, male ICR mice and male SD rats, were purchased from OrientBio or Nara biotech, Korea, and housed 4-5 mice per a cage for 4-5 days. The range of mice body weight was used between 19 and 26 grams and range of rats body weight was used between 100 and 130 grams. After Peak time (0.5, 1, 2 and 4 hr) from the administration, PTZ (Pentylenetetrazol) was administered subcutaneously in the concentration capable of inducing 97% intermittent convulsions (mice: 76-110 mg/kg·bw, 10 μl/g, or rats: 79-110 mg/kg·bw, 2 μl/g). If clonic seizure was not observed for at least 30 minutes in the PTZ administered animal, it can be considered that the test compound has anti-epilepsy activity. The median effective dose (ED50) is determined using 6 animals per a concentration (total three different concen-trations), and calculated by Litchfield and Wicoxon log-probit method which is a dose-response relationship.

ICR mice [4] = assay: Writhing test (0.6% acetic acid); settings: for ED50: Mus musculus, po
Experimental: To examine the pain relief effect of the sulfamate compounds, a writhing test was conducted, referring to Fischer, L. G. et al. (2008).
ICR mice (male, 24-28 g; Orient Bio, Korea) were habituated before test in test room for 1 hour. Animals were fasted 2 hr, before administration of compounds. Each of Compounds was orally administered at the three dose, 10 ul/g, by bodyweight (All compounds were dissolved in a vehicle of 30% (v/v) PEG 400 or 20% (v/v) Tween 80. The control group was treated with the vehicle without compounds.
0.25-2 hour after the administration of Compounds, 0.6% acetic acid at the dose of 10 ul/g, by bodyweight was injected into the mice. Animals were habituated in the cage for 5 min. 5 min after habituation, the number of writhes (abdominal constriction) was conted for 15 min, referring to Korzeniewska-Rybicka, I. et al. (1998) and compared with that of a control.

SMILES | SNL Peak Time (Sprague-Dawley rats [1]) [h] | SNL efficacy % (Sprague-Dawley rats [1]; 30 mg/kg) | response vs control in vivo at 50 mg/kg (Sprague-Dawley rats [2]) [%] | CFA-induced pain model Peak Time (Sprague-Dawley rats [2]) [h] | scPTZ test (ip) Peak time (ICR mice [3]) [h] | ED50 (ICR mice [3]) [mg/kg] | Writhing test(po) Peak Time (ICR mice [4]) [h] | ED50 (ICR mice [4]) [mg/kg] | ED50 (Sprague-Dawley rats [1]) [mg/kg] | ED50 (Sprague-Dawley rats [2]) [mg/kg]
C[C@@H](OS(N)(=O)=O)[C@H](O)c1ccccc1Cl [Example 2, (1R, 2R)-1-(2-chlorophenyl)-1-hydroxypropan-2-yl sulfamate] | 1 | 30(38.6%) | 23 | 1 | 1 | 18.2 | – | – | – | –
C[C@H](OS(N)(=O)=O)[C@@H](O)c1c(Cl)cccc1Cl [Example 7, (1S, 2S)-1-(2,6-dichlorophenyl)-1-hydroxypropan-2-yl sulfamate] | 0.5 | – | – | 1 | 0.5 | 8.6 | 0.5 | 69.6 | 4.4 | 31.9
C[C@@H](OS(N)(=O)=O)[C@H](O)c1c(Cl)cccc1Cl [Example 8, (1R, 2R)-1-(2,6-dichlorophenyl)-1-hydroxypropan-2-yl sulfamate] | 1 | – | – | 0.5 | 1 | 13.5 | 0.25 | 50.6 | 35.3 | 52.7
COCO[C@H](c1ccccc1Cl)[C@@H](C)OS(N)(=O)=O [Example 70, (1R, 2R)-1-(2-chlorophenyl)-1-(methoxymethoxy)propan-2-yl sulfamate] | 1 | – | 23.7 | 0.5 | 2 | 50.2 | – | – | 6.5 | –
